# Measured values: patent publication US10300155B2, “Alpha-synuclein ligands” (Washington University, priority 2015, dated 2019)
# Several values for one entry are separate records, joined by “and”; a condition that tells them apart may be missing. Equal values may be shown once. Read-outs that look alike come from different tables or passages of the source.
# Experiments:
# tau fibrils [1] = target: T1, tau fibrils (Homo sapiens, UniProt P10636); assay: Thioflavin T competition assay (Example 130, Table 9), tau fibrils; format: binding; design: made in house; host or cells: E. coli BL21(DE3)RIL
# T1 sequence (P10636 560-692): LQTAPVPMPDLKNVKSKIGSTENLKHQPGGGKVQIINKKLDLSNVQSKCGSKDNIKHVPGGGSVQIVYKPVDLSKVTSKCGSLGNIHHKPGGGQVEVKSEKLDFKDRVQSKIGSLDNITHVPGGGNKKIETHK
# Method: Recombinant tau protein was produced in E. coli.
# (§1) Competition assays used a fixed concentration of α-syn, Aβ, or tau fibrils (1 μM), consisting of 3 μM, 50 nM and 4 μM of ThioflavinT respectively. […] To optimize the determination of selectivity, assays for all three fibril species were set up in parallel using a common set of intermediate compound dilutions for each analog. Reactions were incubated at room temperature for 1.5 h before quantifying bound ligand as described above for the saturation binding assay. […] All data points were performed in triplicate. Nonspecific fluorescence was measured in parallel reactions containing ThioT plus each concentration of competitor but no fibrils, and these measurements were subtracted from the reactions with fibrils to yield fibril-specific fluorescence. Data were analyzed using Graphpad. Prism software (version 4.0) to obtain EC50 values by fitting the data to the equation Y=bottom+(top-bottom)/(1+10^(x−log EC50)).
# α-synuclein fibrils [2] = target: T2, α-synuclein fibrils (Homo sapiens, UniProt P37840); assay: Thioflavin T competition assay (Example 130, Table 9), α-synuclein fibrils; format: binding
# T2 construct: made in house; host or cells: E. coli BL21(DE3)RIL
# Method: Freshly transformed BL21 colonies were inoculated into 2 L baffled flasks containing 250 ml sterilized TB (1.2% bactotryptone, 2.4% yeast extract, 0.4% glycerol, 0.17 M KH2PO4, 0.72 M K2HPO4) with 50 μg/ml ampicillin, and incubated overnight at 37° C. with shaking.
# as §1
# Aβ fibrils = Aβ fibrils (Homo sapiens, UniProt P05067); assay: Thioflavin T competition assay (Example 130, Table 9), Aβ fibrils; format: binding; design: Synthetic Aβ42 peptide (1 mg) (Bachem, Torrance, Calif.); purchased Bachem, Torrance, Calif; host or cells: synthetic peptide
# Sequence of Aβ fibrils (P05067 672-713 limits assumed): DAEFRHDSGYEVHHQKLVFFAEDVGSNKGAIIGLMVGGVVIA
# Method: An additional 925 μl of mQ-H2O was added. […] Fibril formation was confirmed by ThioT fluorescence.
# as §1
# α-synuclein fibrils [3] = target: T2, α-synuclein fibrils; assay: Radioligand binding assay with α-synuclein fibrils (Table 8)
# AD Tissue = assay: Radioligand saturation binding, AD postmortem brain tissue; design: species or system human; settings: brain tissue homogenate
# Aβ1-42 fibrils = target: T3, Aβ1-42 fibrils (Homo sapiens, UniProt P05067); assay: Radioligand binding assay with Aβ1-42 fibrils (Table 8)
# T3 construct: Synthetic Aβ42 peptide (1 mg) (Bachem, Torrance, Calif.); purchased Bachem, Torrance, Calif; host or cells: synthetic peptide
# T3 sequence (P05067 672-713 limits assumed): as above
# Method: Synthetic Aβ42 peptide (1 mg) (Bachem, Torrance, Calif.) was first dissolved in 50 μl DMSO. An additional 925 μl of mQ-H2O was added. Finally, 25 μl 1M Tris-HCl pH 7.6 was added to bring the final peptide concentration to 222 μM (1 mg/ml) [16]. The dissolved peptide was incubated for 30 h at 37° C. with shaking at 1000 rpm in an Eppendorf Thermomixer. Fibril formation was confirmed by ThioT fluorescence. To determine the concentration of fibrils, the fibril reaction mix was centrifuged at 15,000×g for 15 min to separate fibrils from monomer. The concentration of Aβ monomer in the supernatant was determined in a BCA protein assay using a BSA standard curve that contained DMSO at a percentage equivalent to the samples. […]
# A fixed concentration (1 μM) of α-syn, Aβ, or tau fibrils were incubated for 2 h at 37° C. with increasing concentrations of ThioT in 30 mM Tris-HCl pH 7.4, 0.1% BSA in a reaction volume of 150 μl. Nonspecific binding was determined in a duplicate set of binding reactions containing the same concentration of ThioT with no fibrils. Fluorescence was determined in a Biotek plate reader using a 440/30 excitation filter and a 485/20 emission filter. […] The dissociation constant (Kd) and the maximal number of binding sites (Bmax) values were determined by fitting the data to the equation Y=Bmax*X/(X+Kd) by nonlinear regression using Graphpad Prism software (version 4.0).
# PD Tissue = assay: Radioligand saturation binding, PD postmortem brain tissue; design: species or system human; settings: brain tissue homogenate
# Source text: (§2) Brain tissue samples were selected from an autopsy case series of patients evaluated for parkinsonism by movement disorders specialists at the Movement Disorders Center of Washington University School of Medicine in St. Louis. The clinical diagnosis of idiopathic PD was based on modified United Kingdom Parkinson's Disease Society Brain Bank clinical diagnostic criteria with clear clinical response to levodopa [Hughes, A. J., et al, “Accuracy of clinical diagnosis of idiopathic Parkinson's disease: a clinico-pathological study of 100 cases,” 1992, J. Neurol. Neurosurg. Psychiatry, 55:181-184]. Dementia was determined by a movement disorders specialist based on clinical assessment of cognitive dysfunction sufficiently severe to impair activities of daily living, with further evaluation of cognitive impairment using the AD8 and Mini-Mental Status Exam (MMSE) [Galvin, J. E., et al., “The AD8: a brief informant interview to detect dementia,” 2005, Neurology 65:559-564; Folstein, M. F., et al., ““Mini-mental state”. A practical method for grading the cognitive state of patients for the clinician,” 1975, J. Psychiatr Res, 12:189-198]. LB stage was assessed at autopsy using a PD staging scale (range: 0, 1-6) [Braak, H., et al., “Stages in the development of Parkinson's disease-related pathology,” 2004, Cell Tissue Res., 318:121-134]. PD cases were selected based on a clinical diagnosis of PD plus dementia, Braak LB stage 5-6 pathology, and the absence of significant Aβ or tau pathology determined by immunohistochemistry. Control cases were selected based on the absence of α-synuclein, Aβ and tau pathology. Samples were used from both male and female subjects.
# (§3) Grey matter was isolated from frozen postmortem frontal cortex tissue by dissection with a scalpel. To prepare insoluble fractions, dissected tissue was sequentially homogenized in four buffers (3 ml/g wet weight of tissue) with glass Dounce tissue grinders (Kimble): 1) High salt (HS) buffer: 50 mM Tris-HCl pH 7.5, 750 mM NaCl, 5 mM EDTA; 2) HS buffer with 1% Triton X-100; 3) HS buffer with 1% Triton X-100 and 1 M sucrose; and 4) phosphate buffered saline (PBS). Homogenates were centrifuged at 100,000×g after each homogenization step and the pellet was resuspended and homogenized in the next buffer in the sequence. For comparison in initial binding studies, crude tissue homogenates were also prepared by homogenization of tissue in only PBS. […]
# (§4) Saturation binding assays combine binding substrate and varying radioligand concentrations, with or without the addition of a high concentration (50-100 times the estimated Kd) of a competitor compound to determine nonspecific binding. […] Specific binding is determined by subtracting nonspecific binding from total binding. […]
# tau fibrils [4] = target: T1, tau fibrils; assay: Radioligand binding assay with tau fibrils (Table 8); design: made in house; host or cells: E. coli BL21(DE3)RIL
# Control Tissue = assay: Radioligand saturation binding, control postmortem brain tissue; design: species or system human; settings: brain tissue homogenate
# Source text: as §2, §3, §4
# α-synuclein fibrils [5] = target: T2, α-synuclein fibrils; assay: ThT saturation binding to α-synuclein fibrils (Example 116); settings: saturation curve
# Method: The mixture was incubated at room temperature for 1 hour on the shaking plate. The reaction plate was scanned by the excitation wavelength range from 430 to 465 nm. The maximum excitation wavelength (λex) was determined according to the fluorescent intensity-excitation wavelength curve. At (λex), the emission wavelength was scanned to get maximum emission wavelength (λem).
# The mixture was incubated at room temperature for 1 hour on the shaking plate. The fluorescent intensity for each cell was measured by the fluorescence reader at λex and λem.
compound,measurement,setting,value
COc1cc(/C=C/c2ccc3cc(OCCF)ccc3n2)ccn1 [[^18F]TZ-36-148],EC50,"tau fibrils [1]; average, read-out: Tau fibrils EC50 (avg)",278 nM
same,Ki,tau fibrils [1]; individual determinations,124 nM and 102 nM
same,EC50,"tau fibrils [1]; individual determinations, read-out: Tau fibrils EC50",305 nM and 251 nM
same,EC50,"α-synuclein fibrils [2]; average, read-out: α-synuclein EC50 (avg)",46.8 nM
same,Ki,"α-synuclein fibrils [2]; average, read-out: α-synuclein Ki (avg)",18 nM
same,EC50,"α-synuclein fibrils [2]; individual determinations, read-out: α-synuclein EC50",44.5 nM and 49 nM
same,Ki,"α-synuclein fibrils [2]; individual determinations, read-out: α-synuclein Ki",17 nM and 19 nM
same,EC50,"Aβ fibrils; average, read-out: Aβ-fibrils EC50 (avg)",448 nM
same,Ki,"Aβ fibrils; average, read-out: Aβ-fibrils Ki (avg)",168 nM
same,EC50,"Aβ fibrils; individual determinations, read-out: Aβ-fibrils EC50",435 nM and 462 nM
same,Ki,"Aβ fibrils; individual determinations, read-out: Aβ-fibrils Ki",163 nM and 173 nM
same,Kd,α-synuclein fibrils [3],90 nM
same,Kd,AD Tissue,83 nM
same,Kd,Aβ1-42 fibrils,98 nM
same,Kd,PD Tissue,167 nM
same,Kd,tau fibrils [4],51 nM
same,Kd,Control Tissue,477 nM
COc1ccc2nc(/C=C/c3ccnc(OC)c3)ccc2c1 [[^11C]TZ-36-28-2T],α-synuclein Bmax (pmol/nmol),α-synuclein fibrils [3],51 pmol/nmol
same,AD Tissue Bmax (pmol/nmol),AD Tissue,4316 pmol/nmol
same,Kd,PD Tissue,55 nM
same,PD Tissue Bmax (pmol/nmol),PD Tissue,367 pmol/nmol
same,Control Tissue Bmax (pmol/nmol),Control Tissue,1081 pmol/nmol
same,Kd,Control Tissue,158 nM
"Cc1ccc2c(c1)sc(-c1ccc(N(C)C)cc1)[n+]2C [ThT, Thioflavin T]",Bmax for ThioT binding to fibrils,α-synuclein fibrils [5],5672 afu
COc1cc(/C=C/c2ccc3cc(OCC[18F])ccc3n2)ccn1 [[^18F]TZ-36-148],α-synuclein Bmax (pmol/nmol),α-synuclein fibrils [3],29 pmol/nmol
same,AD Tissue Bmax (pmol/nmol),AD Tissue,12945 pmol/nmol
same,Aβ1-42 fibrils Bmax (pmol/nmol),Aβ1-42 fibrils,28 pmol/nmol
same,PD Tissue Bmax (pmol/nmol),PD Tissue,1510 pmol/nmol
same,Tau fibrils Bmax (pmol/nmol),tau fibrils [4],58 pmol/nmol
same,Control Tissue Bmax (pmol/nmol),Control Tissue,604 pmol/nmol
